The source made the active and inactive calls.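 How the source made its calls: active means falling polarization with an AC50 at most ten times the sample's highest valid dose; inconclusive means flat curve at 30 to 70% inhibition, or poor fit; inactive means rising signal, flat weak curves, or AC50 past limit.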
Biological target: Golgi-associated PDZ and coiled-coil motif-containing protein (Homo sapiens) (UniProt Q9HD26)
Experiment: CAL PDZ domain peptide-binding inhibitors, dose response, biochemical, fluorescence polarization, untagged CAL PDZ, dry powder (AID 602255)
Conditions: CAL PDZ / TMR peptide fluorescence polarization, 1 h; for activity change, negative = inhibition: at 35 µM (top of the series)

Row | activity change, negative = inhibition | AC50 | Structure (SMILES)
1 | inactive |  | O=S(=O)(Nc1cc(Sc2ccccc2)c(O)c2ccccc12)c1ccc(Cl)cc1
2 | inactive |  | COc1ccc(S(=O)(=O)Nc2cc(SCC(=O)O)c(O)c3ccccc23)cc1
3 | inactive |  | O=S(=O)(Nc1ccc(O)c2ccccc12)c1ccccc1
4 |  | > 35 µM (inactive) | O=C(O)CSc1cc(NS(=O)(=O)c2ccc(Br)cc2)c2ccccc2c1O
